Experimental data: PubChem BioAssay AID1963956 (Xavier Lab, Infectious Disease and Microbiome Program, …, 2024)
The source made the active and inactive calls.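 The calls were made as follows: active = caspase-3 cutting of the mutant autophagy protein ATG16L1 lowered by over half at 20 µM; inactive = the rest.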

Molecular target: Autophagy-related protein 16-1 (Homo sapiens) (UniProt Q676U5)
Assay: blockers of caspase-3 processing of ATG16L1 variant – biochemical, AlphaLISA, recombinant protein, with or without FKBP12, dose response (AID 1963956)
Conditions: recombinant ATG16L1 T300A + caspase-3, AlphaLISA

Autophagy-related protein 16-1 (Homo sapiens), sequence (Q676U5 whole entry T300A, looked up): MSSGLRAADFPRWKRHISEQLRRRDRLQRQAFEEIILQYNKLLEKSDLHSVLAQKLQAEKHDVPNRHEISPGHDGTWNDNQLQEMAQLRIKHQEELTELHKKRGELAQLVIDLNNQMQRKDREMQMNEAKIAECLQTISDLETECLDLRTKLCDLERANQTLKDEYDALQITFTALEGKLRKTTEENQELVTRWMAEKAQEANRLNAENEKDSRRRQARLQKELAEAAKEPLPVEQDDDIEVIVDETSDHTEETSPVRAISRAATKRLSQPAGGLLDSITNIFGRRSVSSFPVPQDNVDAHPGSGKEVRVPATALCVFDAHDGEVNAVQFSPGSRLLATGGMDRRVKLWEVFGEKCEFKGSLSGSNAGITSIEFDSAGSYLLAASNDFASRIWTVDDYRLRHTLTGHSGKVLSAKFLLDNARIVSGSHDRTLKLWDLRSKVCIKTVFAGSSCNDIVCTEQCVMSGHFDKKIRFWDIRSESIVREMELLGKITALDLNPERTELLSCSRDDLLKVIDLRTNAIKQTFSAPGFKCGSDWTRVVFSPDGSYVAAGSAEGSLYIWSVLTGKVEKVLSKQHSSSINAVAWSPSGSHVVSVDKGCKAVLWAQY

Structure (SMILES)	outcome (without FKBP12)	further results
CCC(C)(C)C(=O)C(=O)N1CCCC[C@H]1C(=O)N[C@H](CCc1ccc(OC)cc1)C(=O)N1[C@@H]2CC[C@H]1CC(NC(C)=O)C2 (some centres not stated)	inactive	–
CCC(C)(C)C(=O)C(=O)N1CCCC[C@H]1C(=O)N[C@H](CCc1ccc(OC)cc1)C(=O)N1CC(Nc2nc(NCCc3sc(N)nc3C)nc(NCCn3cnc4ccccc43)n2)C1	inactive	–
CCC(C)(C)C(=O)C(=O)N1CCCC[C@H]1C(=O)N[C@H](CCc1ccc(OC)cc1)C(=O)N1[C@@H]2CC[C@H]1CC(Nc1nc(NCCc3sc(N)nc3C)nc(NCc3ccnc(CO)c3)n1)C2 (some centres not stated)	inactive	–
CCC(C)(C)C(=O)C(=O)N1CCCC[C@H]1C(=O)N[C@H](CCc1ccc(OC)cc1)C(=O)N1CC[C@H](Nc2nc(NCCc3sc(N)nc3C)nc(N(C)Cc3nnc4n3CCC4)n2)C1	inactive	–
CCC(C)(C)C(=O)C(=O)N1CCCC[C@H]1C(=O)N[C@H](CCc1ccc(OC)cc1)C(=O)N1[C@@H]2CC[C@H]1CC(Nc1nc(NCCc3ccccc3)nc(N3CCn4ncnc4C3)n1)C2 (some centres not stated)	inactive	outcome (with FKBP12): inactive
CCC(C)(C)C(=O)C(=O)N1CCCC[C@H]1C(=O)N[C@H](CCc1ccc(OC)cc1)C(=O)N1[C@@H]2CC[C@H]1CC(Nc1nc(NCCc3sc(N)nc3C)nc(N(C)Cc3nnc4n3CCC4)n1)C2 (some centres not stated)	inactive	–
CCC(C)(C)C(=O)C(=O)N1CCCC[C@H]1C(=O)N[C@H](CCc1ccc(OC)cc1)C(=O)N1[C@@H]2CC[C@H]1CC(Nc1nc(NCCc3sc(N)nc3C)nc(N3CCn4ncnc4C3)n1)C2 (some centres not stated)	–	EC50 (with FKBP12): 10.8 µM; EC50 (without FKBP12): 12.1 µM
CCC(C)(C)C(=O)C(=O)N1CCCC[C@H]1C(=O)N[C@H](CCc1ccc(OC)cc1)C(=O)N1[C@@H]2CC[C@H]1CC(Nc1nc(NCCc3sc(N)nc3C)nc(NCCn3cnc4ccccc43)n1)C2 (some centres not stated)	inactive	–
CC(=O)N1[C@@H]2CC[C@H]1CC(Nc1nc(NCCc3sc(N)nc3C)nc(N3CCn4ncnc4C3)n1)C2 (some centres not stated)	inactive	outcome (with FKBP12): inactive
